The supplement of paper PMC13380429

Assays:
Settings in all cases: 72 h
Vero E6 [1] = assay: cell viability relative to DMSO; higher = less toxic
U2OS [2] = assay: as above
Calu-3 [3] = assay: as above
HepG2 [4] = assay: as above
Caco-2 [5] = assay: as above
Vero E6 [6] = assay: relative viability EC50 (midpoint between 100% and the lowest measured viability); higher = less toxic
U2OS [7] = assay: as above
Calu-3 [8] = assay: as above
HepG2 [9] = assay: as above
Caco-2 [10] = assay: as above
Vero E6 [11] = assay: drug sensitivity score (DSS) for viability; higher = more toxic; extreme values may be limits of the assay
U2OS [12] = assay: as above
Calu-3 [13] = assay: as above
HepG2 [14] = assay: as above
Caco-2 [15] = assay: as above

Compound | cell viability (Vero E6 [1]; 1 nM) [%] | cell viability (Vero E6 [1]; 10 nM) [%] | cell viability (Vero E6 [1]; 100 nM) [%] | cell viability (Vero E6 [1]; 1000 nM) [%] | cell viability (Vero E6 [1]; 10000 nM) [%] | cell viability (U2OS [2]; 1 nM) [%] | cell viability (U2OS [2]; 10 nM) [%] | cell viability (U2OS [2]; 100 nM) [%] | cell viability (U2OS [2]; 1000 nM) [%] | cell viability (U2OS [2]; 10000 nM) [%] | cell viability (Calu-3 [3]; 1 nM) [%] | cell viability (Calu-3 [3]; 10 nM) [%] | cell viability (Calu-3 [3]; 100 nM) [%] | cell viability (Calu-3 [3]; 1000 nM) [%] | cell viability (Calu-3 [3]; 10000 nM) [%] | cell viability (HepG2 [4]; 1 nM) [%] | cell viability (HepG2 [4]; 10 nM) [%] | cell viability (HepG2 [4]; 100 nM) [%] | cell viability (HepG2 [4]; 1000 nM) [%] | cell viability (HepG2 [4]; 10000 nM) [%] | cell viability (Caco-2 [5]; 1 nM) [%] | cell viability (Caco-2 [5]; 10 nM) [%] | cell viability (Caco-2 [5]; 100 nM) [%] | cell viability (Caco-2 [5]; 1000 nM) [%] | cell viability (Caco-2 [5]; 10000 nM) [%] | relative viability EC50 (Vero E6 [6]) [µM] | relative viability EC50 (U2OS [7]) [µM] | relative viability EC50 (Calu-3 [8]) [µM] | relative viability EC50 (HepG2 [9]) [µM] | relative viability EC50 (Caco-2 [10]) [µM] | drug sensitivity score (Vero E6 [11]) | drug sensitivity score (U2OS [12]) | drug sensitivity score (Calu-3 [13]) | drug sensitivity score (HepG2 [14]) | drug sensitivity score (Caco-2 [15])
CC(C)NCCN(C(C)C)S(=O)(=O)c1ccc(Cl)cc1Cl [RN-1734] | 97 | 100 | 94.2 | 96.7 | 91.2 | 99.3 | 98.4 | 101 | 95.4 | 94.7 | 97.1 | 101 | 95.6 | 99.8 | 99.6 | 99.8 | 89.7 | 102 | 96.8 | 85.9 | 105 | 95.1 | 97.1 | 94.6 | 97.4 | > 10 | > 10 | > 10 | > 10 | > 10 | 0 | 0 | 0 | 0.4 | 0
Cc1ccc(O)c(N=Nc2ccccc2)n1 [SIB-1757] | 98.1 | 94.6 | 96.7 | 99 | 92.5 | 104 | 107 | 102 | 103 | 95.9 | 99.8 | 107 | 111 | 99.9 | 92.8 | 108 | 110 | 107 | 108 | 94.5 | 92.4 | 103 | 98.6 | 103 | 86.2 | > 10 | > 10 | > 10 | > 10 | > 10 | 0 | 0 | 0 | 0 | 0.1
C=CCN1C[C@H](C)N([C@H](c2ccc(C(=O)N(CC)CC)cc2)c2cccc(OC)c2)C[C@H]1C [SNC-80] | 106 | 97.7 | 105 | 102 | 101 | 98.4 | 103 | 93.4 | 99.4 | 94.7 | 93.4 | 98.8 | 101 | 91.2 | 104 | 99.9 | 84.6 | 100 | 106 | 97.4 | 92.1 | 99.2 | 101 | 95.5 | 93.7 | > 10 | > 10 | > 10 | > 10 | > 10 | 0 | 0 | 0 | 0 | 0
CC[C@H](/C=C/[C@@H](C)[C@H]1CC[C@H]2[C@@H]3CC=C4C[C@@H](O)CC[C@]4(C)[C@H]3CC[C@]12C)C(C)C [Stigmasterol (Stigmasterin)] | 99 | 104 | 99.4 | 106 | 102 | 105 | 96.4 | 100 | 99.3 | 99.4 | 95 | 103 | 110 | 102 | 104 | 103 | 109 | 92.9 | 92.8 | 105 | 102 | 107 | 94.6 | 93.5 | 96.9 | > 10 | > 10 | > 10 | > 10 | > 10 | 0 | 0 | 0 | 0 | 0
Cc1ccc(-c2csc3ncnc(SCCC(=O)O)c23)cc1 [TTP-22] | 97.1 | 94 | 102 | 101 | 102 | 97.3 | 102 | 99 | 99 | 104 | 101 | 87.5 | 93.4 | 99.4 | 96.3 | 103 | 92.3 | 95.6 | 100 | 108 | 103 | 96.5 | 97.3 | 95 | 97.4 | > 10 | > 10 | > 10 | > 10 | > 10 | 0 | 0 | 0 | 0 | 0
CCCCNc1ncc(-c2ccc(CN3CCOCC3)cn2)c(N[C@H]2CC[C@H](O)CC2)n1 [UNC2250] | 101 | 99.6 | 94.5 | 91.9 | 99.1 | 97.9 | 98.8 | 99.9 | 100 | 94.8 | 102 | 102 | 94.7 | 108 | 98.9 | 108 | 102 | 109 | 97.7 | 100 | 97.1 | 103 | 105 | 108 | 103 | > 10 | > 10 | > 10 | > 10 | > 10 | 0 | 0 | 0 | 0 | 0
O=[N+]([O-])c1ccc2nc(COCc3nc4ccc([N+](=O)[O-])cc4[nH]3)[nH]c2c1 [VU591] | 93.4 | 99.1 | 92.2 | 94.6 | 114 | 93.2 | 93.7 | 99.4 | 99 | 97.3 | 94.6 | 95.3 | 101 | 100 | 88.7 | 94.1 | 95.6 | 96.3 | 96.2 | 102 | 95.8 | 92.2 | 103 | 84.9 | 92.8 | > 10 | > 10 | > 10 | > 10 | > 10 | 0 | 0 | 0 | 0 | 0
